Experimental data published in US20210380535A1, “CO-CRYSTALS COMPRISING EPICATECHIN AND A CARBOXY-N-HETEROCYCLIC CO-CRYSTAL FORMER” (Epirium Bio Inc., priority 2018, published 2021).
Where two headings read alike, the source gives them in different places.

Key:
[1] = average; male SD rats, PO, 14 mpk of Compound 109 (equivalent to 10 mpk epicatechin), vehicle 0.5% CMC
Experimental: A pharmacokinetics study was carried out to evaluate the plasma exposure of D-proline co-crystals of (+) epicatechin (Compound 109). Co-crystals were administered orally (PO) at a dose of 14 mpk of Compound 109, which is equivalent to 10 mpk of epicatechin. The dosing vehicle that was used in this study was 0.5% CMC. After oral dosing, blood was collected by serial bleeding at different time points in heparinised tubes. Blood samples were centrifuged at 10,000 rpm for 5 min. at 4° C. to obtain the plasma, which were aspirated into separate labelled tubes and stored at −80° C. Extraction solvent was added to plasma, was vortexed and shaken on a shaker for 10 minutes, and then centrifuged at 10,000 rpm for 10 minutes at 4° C. Supernatant was kept for analysis. Acetonitrile and plasma calibration curves were generated and percentage of drug recovery from plasma determined. Quantitative analysis was done by liquid chromatography tandem mass spectrometer (API3000 LC-MS/MS). PK parameters were calculated using Graph Pad PRISM version 5.04 and the results are depicted in Table 7.

[2] = Pharmacokinetics study of (+)/(−) epicatechin and their trigonelline (1:1) co-crystals, oral (Example 3); assay type: in vivo; conditions: rat, 10 mg/kg, male SD rats, 10 mpk equivalent of parent drug, vehicle CMC and Tween 80, plasma; for half-life: read-out: T½ elimination (converted)
Experimental: (§1) Co-crystals of the present invention were administered orally (PO) at a dose of 10 mpk equivalent of parent drugs in male SD rats. The PK results of the compound were compared with exposure of parent drugs. […] Blood samples were centrifuged at 10,000 rpm for 5 min. at 4° C. to obtain the plasma, which were aspirated into separate labelled tubes and stored at −80° C. Extraction solvent was added to plasma, was vortexed and shaken on shaker for 10 minutes, centrifuged at 10,000 rpm for 10 minutes at 4° C. Supernatant was kept for analysis.

[3] = Pharmacokinetics study of (+) epicatechin (SPR590) and its trigonelline (1:1) co-crystal (SPR515), oral (Example 4); assay type: in vivo; conditions: rat, plasma, male SD rats, CMC and Tween 80
Experimental: as §1, with “mpk” for “mpk equivalent of parent drugs”, “rats for the control (+) epicatechin group and 10 mpk of SPR 515 which is equivalent to 6.25 mpk of epicatechin.” for “rats.”

[4] = PO, dose 10 mpk (MW adjusted (+)-epicatechin dose: SPR590 10 mpk, SPR515 6.25 mpk)

O=C(O)[C@H]1CCCN1.Oc1cc(O)c2c(c1)O[C@@H](c1ccc(O)c(O)c1)[C@@H](O)C2 [Compound 109, (+) Epicatechin_(D)-Proline (1:1) Co-Crystals]
AUC [1]: 1.90533 µM·h | Cmax [1]: 778 nM | Tmax [1]: 45 min | T½ elimination [1]: 103 min

Oc1cc(O)c2c(c1)O[C@H](c1ccc(O)c(O)c1)[C@H](O)C2 [Compound 107, (−) epicatechin]
AUC [2]: 0.678 µM·h | Cmax [2]: 386 nM | Tmax [2]: 18 min | half-life [2]: 113 min

Oc1cc(O)c2c(c1)O[C@@H](c1ccc(O)c(O)c1)[C@@H](O)C2 [Compound 108, (+) epicatechin]
AUC [2]: 0.579 µM·h | Cmax [2]: 333 nM | Tmax [2]: 60 min | half-life [2]: 49.8 min | AUC [3, 4]: 0.678 µM·h | Cmax [3, 4]: 386 nM | concentration at 0.16 h ([3]; time point 0.16 h, PO 10 mpk (SPR515: equivalent to 6.25 mpk epicatechin), read-out: Plasma level): 236 nM | concentration at 0.5 h ([3]; time point 0.5 h, PO 10 mpk (SPR515: equivalent to 6.25 mpk epicatechin), read-out: Plasma level): 338 nM | concentration at 1 h ([3]; time point 1 h, PO 10 mpk (SPR515: equivalent to 6.25 mpk epicatechin), read-out: Plasma level): 262 nM | concentration at 2 h ([3]; time point 2 h, PO 10 mpk (SPR515: equivalent to 6.25 mpk epicatechin), read-out: Plasma level): 152 nM | concentration at 4 h ([3]; time point 4 h, PO 10 mpk (SPR515: equivalent to 6.25 mpk epicatechin), read-out: Plasma level): 24.1 nM | concentration at 8 h ([3]; time point 8 h, PO 10 mpk (SPR515: equivalent to 6.25 mpk epicatechin), read-out: Plasma level): 0 nM
